We go through 4 compounds from patent US20070265164A1, “Active Substances for Increasing Pathogenic Defense in Plants and Methods for the Detection Thereof” (Bayer Cropscience GmbH, priority 2004, published 2007).

What all share (type): in vivo
Holding throughout (parameters): fold induction: dose or concentration left out as unconfirmed

The subject of assay [1] is Contig6611_at, Similar to lipases. Nature of the assay: GEP, barley DNA chip, probe set 1.12. The following applies: Hordeum vulgare, topical, read-out: Expression value, 1.12 Contig6611_at; for fold induction: barley leaves 6 h after spray application, rates of Table 1 (S7 500), median induction factor vs control. How it is done:
(§1) Barley plants (cv. Baronesse) were grown in compost-filled pots (diameter: 10 cm) for 10 days in a controlled-environment cabinet under defined light, humidity and temperature conditions (white light, 70% atmospheric humidity, 24° C.). At the time of spray application, the seedlings were approximately 15 cm in size. The test substances selected in this example were molecules which differ markedly in their structure and which have a well documented pronounced safener effect, and other molecules which are known from the literature to have an effect on plant stress and pathogen tolerance (Table 1). The substances were prepared as stock solutions in DMSO (dimethyl sulfoxide) at c=10 mg/ml). This was used for preparing dilutions in water supplemented with 0.2% Agrotin (comprises polyvinyl alcohol, silicones, polysaccharides and pH regulators, manufacturer: Bayer CropScience AG, Monheim, Germany), as wetter, to give the application rates shown in the table. The amount of liquid for the spray application was 800 μl per pot, corresponding to 800 l/ha. For each 800 μl of spray mixture, 16 μl of EC premix: diacetone alcohol=1:6 were additionally added as formulation auxiliaries. The substances listed in Table 1 were applied to the leaves by means of a pneumatic spray pistol. Each substance was sprayed as 2 dosages, and all experiments were carried out as replicates (2 pots per substance). Sprayings with blank formulation without active ingredient were carried out as controls. After 6 hours, the leaves were harvested, frozen in liquid nitrogen and stored at −80° C. until further use. The labeled RNA probes for the DNA chip hybridization were prepared as described in the protocols (Expression Analysis, Technical Manual) from Affymetrix (Affymetrix Inc., 3380 Central Expressway, Santa Clara, Calif., USA). First, total RNA was isolated from in each case 500 mg of the harvested leaves. In each case 10 μg of total RNA was used for the first-strand and second-strand cDNA synthesis. The cDNA was amplified with T7 polymerase and simultaneously labeled with biotin-UTP. In each case, 20 μg of this biotinylated cDNA was employed for the hybridization of the barley genome array (Gene Chip Barleyl, order No.: 511012) from Affymetrix. This DNA microarray comprises DNA sequences of 22 840 genes which are composed of a total of 400 000 EST sequences. Thereafter, the DNA microarrays were washed in the Affymetrix Fluidics Station, stained with streptavidin/phycoerythrin (Molecular Probes, P/N S-866) and scanned with the matching Agilent Laser Scanner (Agilent Gene Array Scanner). The fluorescent data obtained were analyzed with the software Microarray Suite 5 from Affymetrix. After the quality had been checked, all DNA chip analyses were stored in a database. To determine the relative expression values for genes (induction factors, repression factors), test and control chips were compared with each other, and the scoring function set by the Affymetrix software was used as the basis. The 2 biological replications of one experiment were compared in each case with 2 control chips (blank formulation), and the 4 expression values obtained for each gene were used for calculating the median. These medians are shown in the results tables as induction factors. Similarity comparisons of expression profiles from different experiments and cluster analyses were carried out using the software GeneMaths 1.5 from Applied Maths (Applied Maths, Keistraat 120, 9830 Sint-Martens-Latem, Belgium).
(§2) Gene groups from specific metabolic pathways and signal transduction chains were put together by key word search in the annotations, of the genes, which were also provided by Affymetrix, and by Blast analyses (homology comparisons) of the DNA target sequences, i.e. of the positive sequence (identified on the basis of a modified expression profile) identified on the DNA chip, using gene sequences from other organisms, preferably plant organisms, with characterized functions. […]

Assay [2] concerns Contig1736_at, Lipoxygenase 1 (EC 1.13.11.12). Put plainly: GEP, barley DNA chip, probe set 1.10. The following applies: Hordeum vulgare, read-out: Expression value, 1.10 Contig1736_at; for fold induction: barley leaves 6 h after spray application, rates of Table 1 (S7 500), median induction factor vs control. As for the experimental part: as §1, §2
Assay [3] deals with Contig5146_at, Probable 12-oxophytodienoate reductase (EC 1.3.1.42). Put plainly: GEP, barley DNA chip, probe set 1.4. The following applies: Hordeum vulgare, topical, read-out: Expression value, 1.4 Contig5146_at; for fold induction: barley leaves 6 h after spray application, rates of Table 1 (S7 500), median induction factor vs control. How it is done: as §1, §2
The test system of assay [4] is HI02E21u_s_at, Lipoxygenase (EC 1.13.11.12). Nature of the assay: GEP, barley DNA chip, probe set 1.2. The following applies: Hordeum vulgare, topical, read-out: Expression value, 1.2 HI02E21u_s_at; for fold induction: barley leaves 6 h after spray application, rates of Table 1 (S7 500), median induction factor vs control. As for the experimental part: as §1, §2
Assay [5] deals with Contig2631_at, Lipase-like Protein (jasmonic acid biosynthesis gene). Put plainly: Gene expression profiling (GEP), barley DNA chip, probe set 1.1. The following applies: Hordeum vulgare; for fold induction: barley leaves 6 h after spray application, rates of Table 1 (S7 500), median induction factor vs control. As for the experimental part:
as §1, §2

Assay [6] deals with Contig2337_at, 12-oxophytodienoate reductase (OPR1). Nature of the assay: GEP, barley DNA chip, probe set 1.20. The following applies: Hordeum vulgare, topical, read-out: Expression value, 1.20 Contig2337_at; for fold induction: barley leaves 6 h after spray application, rates of Table 1 (S7 500), median induction factor vs control. How it is done:
as §1, §2

Assay [7] deals with Contig6194_a_at, 12-oxophytodienoic acid reductase. Nature of the assay: GEP, barley DNA chip, probe set 1.7. The following applies: Hordeum vulgare, topical, read-out: Expression value, 1.7 Contig6194_a_at; for fold induction: barley leaves 6 h after spray application, rates of Table 1 (S7 500), median induction factor vs control. As for the experimental part: as §1, §2
The test system of assay [8] is Contig1737_at, Probable lipoxygenase. Nature of the assay: GEP, barley DNA chip, probe set 1.15. The following applies: Hordeum vulgare, topical, read-out: Expression value, 1.15 Contig1737_at; for fold induction: barley leaves 6 h after spray application, rates of Table 1 (S7 500), median induction factor vs control. As for the experimental part: as §1, §2
Assay [9] deals with Contig5023_at, Class III chitinase. Nature of the assay: GEP, barley DNA chip, probe set 5.3. The following applies: Hordeum vulgare, topical, read-out: Expression value, 5.3 Contig5023_at; for fold induction: barley leaves 6 h after spray application, rates of Table 1 (S7 500), median induction factor vs control. How it is done: as §1, §2
Assay [10] has as its system Contig2305_at, Methyljasmonate inducible lipoxygenase. Put plainly: GEP, barley DNA chip, probe set 1.14. The settings on record: Hordeum vulgare, topical, read-out: Expression value, 1.14 Contig2305_at; for fold induction: barley leaves 6 h after spray application, rates of Table 1 (S7 500), median induction factor vs control. How it is done:
as §1, §2

Assay [11] has as its system Contig13413_at, Similar to lipases. Nature of the assay: GEP, barley DNA chip, probe set 1.17. The following applies: Hordeum vulgare, topical, read-out: Expression value, 1.17 Contig13413_at; for fold induction: barley leaves 6 h after spray application, rates of Table 1 (S7 500), median induction factor vs control. As for the experimental part:
as §1, §2

Assay [12] concerns Contig88_x_at, Putative proteinase inhibitor. Nature of the assay: GEP, barley DNA chip, probe set 2.3. The settings on record: Hordeum vulgare, topical, read-out: Expression value, 2.3 Contig88_x_at; for fold induction: barley leaves 6 h after spray application, rates of Table 1 (S7 500), median induction factor vs control. As for the experimental part:
as §1, §2

In assay [13] the test system is Contig34_s_at, Putative proteinase inhibitor. Put plainly: GEP, barley DNA chip, probe set 2.2. The following applies: Hordeum vulgare, topical, read-out: Expression value, 2.2 Contig34_s_at; for fold induction: barley leaves 6 h after spray application, rates of Table 1 (S7 500), median induction factor vs control. As for the experimental part: as §1, §2

As for `CSC(=O)c1cccc2nnsc12` [S8, Acibenzolar-S-methyl], the fold induction in assay [1] is 3.61; in [2], 1; in [3] it was 1; in assay [4], 1; in assay [5] it was 1; in [6], 1. Moreover, the fold induction in assay [7] came to 1; in assay [8], 1; in [9] it was 1; in assay [10] it was 81.6; in assay [11] it was 2.17; in assay [12] it was 22.9. In assay [13], the fold induction came out at 3.68.
As to `COC(=O)C1=NN(c2ccc(Cl)cc2Cl)C(C)(C(=O)OC)C1` (stereo not shown) [S1, Mefenpyr-dimethyl], the fold induction came out at 1 in assay [1]; 1 in assay [2]; 7.73 in assay [3]; 1 in assay [4]; 1 in [5]; 4.89 in assay [6]. Also, the fold induction in [7] stood at 12.9; in assay [8], 1; in [9], 9.51; in [10] it was 1; in assay [11], 1; in assay [12] it was 1. In addition, in assay [13], the fold induction came to 1.
In the case of `CCOC(=O)C(Oc1ccc(Cl)c2cccnc12)C(=O)OCC` [S5], the fold induction in assay [1] turned out to be 1; in assay [2] it was 1; in assay [3] it was 5.35; in assay [4], 1; in [5], 1; in assay [6], 1. The fold induction in assay [7] worked out at 2.81; in [8], 1; in [9], 2.73; in [10], 1; in assay [11], 1; in [12] it was 1. For the same compound, in assay [13], the fold induction amounted to 1.
With `O=C(O)c1cc(Cl)nc(Cl)c1` [S9], the fold induction at 150 g/ha in assay [1] (6 h) turned out to be 2; in [2] (6 h) it was 1; in assay [3] (6 h) it was 1; in [4] (6 h), 3.03; in assay [5] (6 h, read-out: Expression value, 1.1 Contig2631_at), 1; in [6] (6 h), 1. Besides, the fold induction at 150 g/ha in [7] (6 h) was determined as 1; in assay [8] (6 h), 1; in assay [9] (6 h) it was 4.56; in assay [10] (6 h), 12.6; in assay [11] (6 h) it was 1; in assay [12] (6 h) it was 4.59. Further, the fold induction at 150 g/ha in assay [13] (6 h) came out at 1.
